Common to all, as to type: cell-based
For test [1], the system named is human carcinoma cell lines A549, SGC7901, HePG2, HeLa, K562, THP-1. The experiment in a line: Cytotoxicity, MTT assay, panel of human carcinoma cell lines (average / overall). To be noted: for IC50: Homo sapiens. An excerpt:
(§1) Compounds 2a–d, 3a–e, 4a–e, 5a–d, and 6a–c were screened against human neoplastic cell lines such as human lung carcinoma cells (A549), human gastric adenocarcinoma cells (SGC7901), human cervical carcinoma cells (HeLa), human liver hepatocellular carcinoma cell line (Hepg2), human chronic myelogenous leukemia cell line (K562), human acute mononuclear granulocyte leukemia (THP-1), human normal heptical cell line (LO2) (Table 1) using modified MTT assay (3-(4,5-dimethyl-2-thiazolyl)-2,5-diphenyl-2-H-tetrazolium bromide, MTT, Dojindo Laboratories, Tokyo, Japan). All cell lines were maintained at 37 °C in a humidified 5% CO2 and 95% air atmosphere. The HePG2 cell lines were cultured in DMEM containing 10% fetal bovine serum. Other cell lines were grown in medium 1640 and supplemented with 10% fetal bovine serum. […] Controls were prepared with 0.1% DMSO (v/v) only. The cells were seeded in a 96-well plate in 200 µL medium per well at a density of 1 × 10^4 cells/well for 24 hours. The cells were treated with serial concentrations of compound and incubated for 24 hours. Cells with only culture media were used as control. After the media was removed, 20 µL of MTT (5 mg/mL) was added then the plates were incubated for 4 hours at 37 °C in cell culture incubator. The MTT containing media were removed and then 150 µL of DMSO was added to dissolve the dark-blue formazan crystals. The optical density (OD) was measured by a multi-well plate reader (TECAN, Männedorf, Switzerland) at 570 nm. The results are expressed as a decrease in the cell viability (%) in comparison to untreated controls. The concentration of each compound was examined in triplicate, and the IC50 values are expressed in Table 1. The concentrations of the compounds were 50, 20, 10, 5, 2.5, 1, 0.5, 0.1, 0.05 and 0.01 µg/mL. Doxorubicin (DOX) and Curcumin were used as positive controls. […] The concentrations of curcumin used were 100, 50, 25, 12.5, 6.25, 3.125, 1, 0.5 and 0.1 µg/mL.
The cytotoxicity activities against human carcinoma cell lines A549, SGC7901, HePG2, HeLa, K562, THP-1 and cytotoxicity toward LO2 cell lines were evaluated by MTT method. DOX and curcumin were used as positive control. The selectivity index (SI) is the quotient of the IC50 values towards nonmalignant LO2 cells. […] Especially for 4a–e, 5a–d, and 6a–c, this ratio can reach about 92%.
A general note: Tetrazolium dyes change colour on reduction, which living cells bring about.

Test [2] concerns human normal heptical cell line (LO2). Kind of test: Cytotoxicity, MTT assay, non-malignant LO2. To be noted: 24 hours, non-malignant cells.
Description: as §1

Test [3] has as its system human acute mononuclear granulocyte leukemia (THP-1). The experiment in a line: Cytotoxicity, MTT assay, THP-1. To be noted: for IC50: Homo sapiens, THP-1, MTT, 24 hours; for THP-1 SI: quotient of the IC50 values towards nonmalignant LO2 cells.
Description: as §1

Test [4] concerns human cervical carcinoma cells (HeLa). Kind of test: Cytotoxicity, MTT assay, HeLa. To be noted: for IC50: Homo sapiens, HeLa, MTT, 24 hours; for HeLa SI: quotient of the IC50 values towards nonmalignant LO2 cells.
Description: as §1

In test [5] the test system is human lung carcinoma cells (A549). The experiment in a line: Cytotoxicity, MTT assay, A549. As to conditions: for IC50: Homo sapiens, A549, MTT, 24 hours; for A549 SI: quotient of the IC50 values towards nonmalignant LO2 cells.
Description: as §1

Test [6] concerns human liver hepatocellular carcinoma cell line (Hepg2). The experiment in a line: Cytotoxicity, MTT assay, HePG2. To be noted: for IC50: Homo sapiens, HepG2, MTT, 24 hours; for HePG2 SI: quotient of the IC50 values towards nonmalignant LO2 cells.
Description: as §1, with “µg/mL.” for “µg/mL. Doxorubicin (DOX) and Curcumin were used as positive controls.”

For test [7], the system named is human chronic myelogenous leukemia cell line (K562). The experiment in a line: Cytotoxicity, MTT assay, K562. To be noted: for IC50: Homo sapiens, K562, MTT, 24 hours; for K562 SI: quotient of the IC50 values towards nonmalignant LO2 cells.
Description: as §1

Test [8] deals with human gastric adenocarcinoma cells (SGC7901). Kind of test: Cytotoxicity, MTT assay, SGC7901. As to conditions: for IC50: Homo sapiens, SGC-7901, MTT, 24 hours; for SGC7901 SI: quotient of the IC50 values towards nonmalignant LO2 cells.
Description: as §1

[9] abbreviates: average over the six carcinoma cell lines, read-out: Ave IC50.
The mark [10] stands for this setting: average over the six carcinoma cell lines.

As usually defined, the IC50 is the concentration that gives 50% inhibition.

Read-outs that look alike come from different tables or passages of the source.

With `Nc1cccc(/C=C2\CCC/C(=C\c3cccc(N)c3)C2=O)c1` [2a, (2E,6E)-2,6-bis(3-aminobenzylidene)cyclohexanone], the IC50 in test [1] (setting [9]) was 13.7 µM; in test [1] (statement for all experimental carcinoma cell lines, read-out: IC50 values against human carcinoma cell lines) it was > 5 µM; in test [2], 28.2 ± 3.9 µM; in test [3], 6.2 ± 1.1 µM; in test [4], 25.9 ± 3.7 µM; in test [5] it was 7.9 ± 0.1 µM. The IC50 in test [6] stood at 10.7 ± 0.5 µM; in test [7], 22.2 ± 1.9 µM; in test [8] it was 9.4 ± 0.2 µM. Besides, in test [1] (setting [10]), the “Ave SI” value worked out at 2.7. The “THP-1 SI” value in test [3] is listed as 4.5. Also, in test [4], the “HeLa SI” value stood at 1.1. The “A549 SI” value in test [5] was determined as 3.6. Further, the “HePG2 SI” value in test [6] worked out at 2.6. Besides, in test [7], the “K562 SI” value is 1.3.
With `CN1C/C(=C\c2cccc(N)c2)C(=O)/C(=C/c2cccc(N)c2)C1` [2b, (3E,5E)-3,5-bis(3-aminobenzylidene)-1-methylpiperidin-4-one], the IC50 is 4 µM in test [1] (setting [9]); 16.9 ± 0.2 µM in test [2]; 1.5 ± 0.1 µM in test [3]; 4.4 ± 0.1 µM in test [4]; 6.5 ± 0.1 µM in test [5]; 3.1 ± 0.2 µM in test [6]. The figures for the IC50 in test [7] and in test [8] were 4.3 ± 0.1 µM and 4.2 ± 0.3 µM, respectively. Further, the “Ave SI” value in test [1] (setting [10]) is given as 5.2. Moreover, in test [3], the “THP-1 SI” value amounted to 11.5. Besides, in test [4], the “HeLa SI” value came out at 3.8. Moreover, the “A549 SI” value in test [5] stood at 2.6. For the same compound, the “HePG2 SI” value in test [6] was determined as 5.4. The “K562 SI” value in test [7] was found to be 3.9. Further, the “SGC7901 SI” value in test [8] worked out at 4.0.
Turning to `Nc1ccc(F)c(/C=C2\CNC/C(=C\c3cc(N)ccc3F)C2=O)c1` [2c], the IC50 came to 2.9 µM in test [1] (setting [9]); 18.8 ± 1.4 µM in test [2]; 1.4 ± 0.2 µM in test [3]; 2.2 ± 0.1 µM in test [4]; 3.4 ± 1.2 µM in test [5]; 5.8 ± 0.2 µM in test [6]. The values for the IC50 in test [7] and in test [8] were 2 ± 0.1 µM and 2.5 ± 0.8 µM, respectively. For the same compound, in test [1] (setting [10]), the “Ave SI” value turned out to be 8.0. The “THP-1 SI” value in test [3] was 13.9. For the same compound, in test [4], the “HeLa SI” value stood at 8.7. In addition, the “A549 SI” value in test [5] is 5.5. Also, the “HePG2 SI” value in test [6] came to 3.2. Also, the “K562 SI” value in test [7] came to 9.3. Further, in test [8], the “SGC7901 SI” value amounted to 7.4.
Take `CN1C/C(=C\c2cc(N)ccc2F)C(=O)/C(=C/c2cc(N)ccc2F)C1` [2d]: the IC50 came out at 3.7 µM in test [1] (setting [9]); 21.6 ± 2.8 µM in test [2]; 2.1 ± 1.1 µM in test [3]; 3.1 ± 0.1 µM in test [4]; 4.1 ± 1 µM in test [5]; 6.2 ± 0.3 µM in test [6]. Moreover, the IC50 in test [7] is 3 ± 0.1 µM; in test [8], 3.8 ± 1.2 µM. The “Ave SI” value in test [1] (setting [10]) amounted to 6.5. In test [3], the “THP-1 SI” value turned out to be 10.3. The “HeLa SI” value in test [4] is reported as 6.9. The “A549 SI” value in test [5] was determined as 5.4. In test [6], the “HePG2 SI” value is reported as 3.5. Further, the “K562 SI” value in test [7] is listed as 7.3. For the same compound, the “SGC7901 SI” value in test [8] is listed as 5.6.
Consider `O=C1/C(=C/c2cccc(/N=C/c3ccccc3O)c2)CCC/C1=C\c1cccc(/N=C/c2ccccc2O)c1` [3a], for which the IC50 in test [1] (setting [9]) came out at 6.1 µM; in test [2] it was 18.2 ± 0.2 µM; in test [3] it was 1.5 ± 0.1 µM; in test [4] it was 9.9 ± 0.3 µM; in test [5], 7.4 ± 0.3 µM; in test [6], 3.3 ± 0.1 µM. Also, the IC50 is 3.4 ± 0.01 µM in test [7] and 11.4 ± 0.2 µM in test [8]. For the same compound, the “Ave SI” value in test [1] (setting [10]) is 4.9. Further, the “THP-1 SI” value in test [3] was determined as 12.4. In addition, the “HeLa SI” value in test [4] is recorded as 1.8. For the same compound, in test [5], the “A549 SI” value was 2.5. Further, the “HePG2 SI” value in test [6] is listed as 5.6. Besides, the “K562 SI” value in test [7] is listed as 5.4. Further, in test [8], the “SGC7901 SI” value is 1.6.
With `O=C1/C(=C/c2cccc(/N=C/c3cc(F)ccc3O)c2)CCC/C1=C\c1cccc(/N=C/c2cc(F)ccc2O)c1` [3b], the IC50 in test [1] (setting [9]) amounted to 4.3 µM; in test [2], 17.1 ± 0.1 µM; in test [3] it was 1.6 ± 0.1 µM; in test [4], 8.9 ± 0.2 µM; in test [5], 6.1 ± 0.4 µM; in test [6], 2.8 ± 0.1 µM. Also, the IC50 came to 3.4 ± 0.01 µM in test [7] and 2.7 ± 0.6 µM in test [8]. The “Ave SI” value in test [1] (setting [10]) is given as 5.5. The “THP-1 SI” value in test [3] came to 10.5. In test [4], the “HeLa SI” value is listed as 1.9. In addition, the “A549 SI” value in test [5] is 2.8. In addition, the “HePG2 SI” value in test [6] is on record as 6.1. For the same compound, in test [7], the “K562 SI” value turned out to be 5.0. For the same compound, the “SGC7901 SI” value in test [8] was determined as 6.4.
As for `O=C1/C(=C/c2cccc(/N=C/c3cc(Br)ccc3O)c2)CCC/C1=C\c1cccc(/N=C/c2cc(Br)ccc2O)c1` [3c], the IC50 amounted to 10 µM in test [1] (setting [9]); 12 ± 0.1 µM in test [2]; 5.3 ± 0.01 µM in test [3]; 11.4 ± 0.9 µM in test [4]; 10.6 ± 1.1 µM in test [5]; 13.7 ± 1.1 µM in test [6]. Also, the IC50 in test [7] is 14 ± 0.1 µM; in test [8] it was 5.2 ± 0.8 µM. Also, the “Ave SI” value in test [1] (setting [10]) was 1.4. Also, the “THP-1 SI” value in test [3] turned out to be 2.3. The “HeLa SI” value in test [4] was found to be 1.0. Besides, the “A549 SI” value in test [5] is listed as 1.1. In addition, the “HePG2 SI” value in test [6] stood at 0.9. Besides, the “K562 SI” value in test [7] is 0.9. In addition, the “SGC7901 SI” value in test [8] came out at 2.3.
Turning to `COc1ccc(/C=N/c2cccc(/C=C3\CCC/C(=C\c4cccc(/N=C/c5ccc(OC)cc5O)c4)C3=O)c2)c(O)c1` [3d], the IC50 was 5.8 µM in test [1] (setting [9]); 11.3 ± 0.1 µM in test [2]; 3.2 ± 0.03 µM in test [3]; 13.1 ± 1 µM in test [4]; 4.1 ± 0.6 µM in test [5]; 4 ± 0.1 µM in test [6]. Besides, the IC50 in test [7] came to 3.2 ± 0.02 µM; in test [8] it was 7.1 ± 1 µM. In addition, in test [1] (setting [10]), the “Ave SI” value came to 2.5. Also, in test [3], the “THP-1 SI” value came out at 3.6. For the same compound, the “HeLa SI” value in test [4] was determined as 0.9. Also, the “A549 SI” value in test [5] is given as 2.8. Besides, the “HePG2 SI” value in test [6] was determined as 2.9. In addition, the “K562 SI” value in test [7] is listed as 3.6. In addition, the “SGC7901 SI” value in test [8] is given as 1.6.

For the origin of these results see publication PMC6327999, “Hydroxyl-substituted double Schiff-base condensed 4-piperidone/cyclohexanones as potential anticancer agents with biological evaluation” (Journal of Enzyme Inhibition and Medicinal Chemistry, 2019).
